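In this assay, cells in 96-well plates receive the compound at five concentrations for 48 hours. Endpoints are linearly interpolated between the surrounding concentrations. GI50 = concentration required for 50% inhibition of growth.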 Active and inactive are the calls of the source. No stated cut-off is given here; in the data, active = GI50 up to about 1.1 µM and inactive = higher.
Tests used:
Test in all cases: NCI tumour cell line growth inhibition, 48 h
786-0 = tested on: 786-0
A498 = tested on: A498
CAKI-1 = tested on: CAKI-1
DU-145 = tested on: DU-145
EKVX = tested on: EKVX
KM12 = tested on: KM12
M14 = tested on: M14
MCF7 = tested on: MCF7
MDA-MB-435 = tested on: MDA-MB-435
NCI/ADR-RES = tested on: NCI/ADR-RES
SF-295 = tested on: SF-295
SW-620 = tested on: SW-620
TK-10 = tested on: TK-10
K562 = tested on: K562
NCI-H460 = tested on: NCI-H460
RPMI-8226 = tested on: RPMI-8226
RXF 393 = tested on: RXF 393
SF-539 = tested on: SF-539
SR = tested on: SR
UO-31 = tested on: UO-31

Row | SMILES | GI50 (786-0) | GI50 (A498) | GI50 (CAKI-1) | GI50 (DU-145) | GI50 (EKVX) | GI50 (KM12) | GI50 (M14) | GI50 (MCF7) | GI50 (MDA-MB-435) | GI50 (NCI/ADR-RES) | GI50 (SF-295) | GI50 (SW-620) | GI50 (TK-10) | GI50 (K562) | GI50 (NCI-H460) | GI50 (RPMI-8226) | GI50 (RXF 393) | GI50 (SF-539) | GI50 (SR) | GI50 (UO-31)
1 | Cc1ccsc1/C=N/Nc1cc(C)c2cccc(C)c2n1 | 24.4 µM (inactive) | > 100 µM (inactive) | > 100 µM (inactive) | > 100 µM (inactive) | > 100 µM (inactive) | > 100 µM (inactive) | > 100 µM (inactive) | 2.75 µM (inactive) | > 100 µM (inactive) | > 100 µM (inactive) | 9.33 µM (inactive) | > 100 µM (inactive) | > 100 µM (inactive) | – | – | – | – | – | – | –
2 | CC1OC(OC2CC(O)(C(=O)CO)Cc3c(O)c4c(c(O)c32)C(=O)c2ccccc2C4=O)CC(N)C1O (stereo unspecified) | < 0.01 µM (active) | < 0.01 µM (active) | < 0.01 µM (active) | 0.0101 µM (active) | 0.158 µM (active) | 0.0168 µM (active) | < 0.015 µM (active) | – | 0.156 µM (active) | – | < 0.01 µM (active) | < 0.01 µM (active) | 0.0559 µM (active) | < 0.0118 µM (active) | < 0.01 µM (active) | < 0.01 µM (active) | 0.0162 µM (active) | < 0.0112 µM (active) | < 0.01 µM (active) | 0.0232 µM (active)
3 | CC(C)(C)OC(=O)C1C(=O)NC(=O)CC1C(COCc1ccccc1)OCc1ccccc1 (stereo unspecified) | 24.3 µM (inactive) | – | 50.4 µM (inactive) | 39.7 µM (inactive) | 25.3 µM (inactive) | 17.8 µM (inactive) | 18.9 µM (inactive) | 19.9 µM (inactive) | 19.1 µM (inactive) | – | 20.5 µM (inactive) | 25.4 µM (inactive) | 35 µM (inactive) | 30.1 µM (inactive) | – | 20 µM (inactive) | – | 21.6 µM (inactive) | 18 µM (inactive) | 27.1 µM (inactive)
4 | O=C(CCN1CCCC1)c1ccc(Oc2ccc(F)cc2)cc1 | 16.6 µM (inactive) | – | 16.3 µM (inactive) | 53.5 µM (inactive) | 93.3 µM (inactive) | 29.9 µM (inactive) | 31 µM (inactive) | 15.6 µM (inactive) | > 100 µM (inactive) | > 100 µM (inactive) | 90.2 µM (inactive) | 78.7 µM (inactive) | 30.1 µM (inactive) | 42.4 µM (inactive) | > 100 µM (inactive) | – | 22.3 µM (inactive) | 29.9 µM (inactive) | – | 50.9 µM (inactive)
5 | CC(C)C1OC23CCCCC2C(C#N)(C#N)C1(C#N)C(=N)O3 (stereo unspecified) | 14.2 µM (inactive) | 25.3 µM (inactive) | 8.34 µM (inactive) | 26.3 µM (inactive) | 27.5 µM (inactive) | > 10 µM (inactive) | 12.8 µM (inactive) | 12.1 µM (inactive) | 23.7 µM (inactive) | 34.8 µM (inactive) | 49.9 µM (inactive) | 13.7 µM (inactive) | 19.9 µM (inactive) | 8.61 µM (inactive) | 4.73 µM (inactive) | – | 20.5 µM (inactive) | 18 µM (inactive) | – | 32.7 µM (inactive)
6 | CC(=O)OC12c3ccccc3C(c3ccccc31)C1C(=O)N(Nc3ccccc3)C(=O)C12 (stereo unspecified) | > 100 µM (inactive) | > 100 µM (inactive) | > 100 µM (inactive) | > 100 µM (inactive) | > 100 µM (inactive) | > 100 µM (inactive) | > 100 µM (inactive) | > 100 µM (inactive) | – | > 100 µM (inactive) | > 100 µM (inactive) | > 100 µM (inactive) | > 100 µM (inactive) | > 100 µM (inactive) | > 100 µM (inactive) | > 100 µM (inactive) | > 100 µM (inactive) | > 100 µM (inactive) | > 100 µM (inactive) | > 100 µM (inactive)
7 | CCCNC(=S)N/C=C1/C(=O)C=C(C)OC1=O | > 100 µM (inactive) | – | > 100 µM (inactive) | > 100 µM (inactive) | > 100 µM (inactive) | > 100 µM (inactive) | > 100 µM (inactive) | > 100 µM (inactive) | > 100 µM (inactive) | > 100 µM (inactive) | > 100 µM (inactive) | > 100 µM (inactive) | 26.7 µM (inactive) | – | > 100 µM (inactive) | – | – | > 100 µM (inactive) | – | > 100 µM (inactive)
8 | C=CC(Cl)(CBr)CCC(Br)C(C)(C)Cl (stereo unspecified) | 11.7 µM (inactive) | 14.1 µM (inactive) | – | 19.7 µM (inactive) | 19.8 µM (inactive) | – | 13.6 µM (inactive) | 6.92 µM (inactive) | 14.2 µM (inactive) | 22.1 µM (inactive) | 14.8 µM (inactive) | 12.6 µM (inactive) | 23.2 µM (inactive) | 14.9 µM (inactive) | 14.8 µM (inactive) | 7.38 µM (inactive) | 17.4 µM (inactive) | 16.9 µM (inactive) | – | 15.4 µM (inactive)
9 | C=C(CCC=C(C)C)C1CC=C(C)CC1 (stereo unspecified) | 17.1 µM (inactive) | > 100 µM (inactive) | 19.7 µM (inactive) | 23.2 µM (inactive) | 29.2 µM (inactive) | 19 µM (inactive) | 62.4 µM (inactive) | 19.8 µM (inactive) | 18.2 µM (inactive) | 35.6 µM (inactive) | 19.9 µM (inactive) | 22.9 µM (inactive) | 38.5 µM (inactive) | – | 19.3 µM (inactive) | – | 13.9 µM (inactive) | 25.9 µM (inactive) | – | 16.4 µM (inactive)
10 | c1c[nH]c(-c2ccc(-c3ccc[nH]3)c3nsnc23)c1 | > 39.1 µM (inactive) | > 76.6 µM (inactive) | > 66.7 µM (inactive) | > 56.8 µM (inactive) | 0.0426 µM (active) | 0.217 µM (active) | > 46.9 µM (inactive) | 0.0877 µM (active) | > 48.1 µM (inactive) | > 51.6 µM (inactive) | > 58.1 µM (inactive) | > 52.4 µM (inactive) | 0.182 µM (active) | > 26.8 µM (inactive) | 17.3 µM (inactive) | > 27.4 µM (inactive) | – | > 56.9 µM (inactive) | – | > 48.1 µM (inactive)
11 | CC(C)=CCC[C@]1(C)CC[C@]2(C)C3CCC(=C(C)C)[C@@H](CCCO)[C@]3(C)CC[C@@]2(C)C1 (stereo partly specified) | 32.4 µM (inactive) | > 100 µM (inactive) | 95.7 µM (inactive) | 34 µM (inactive) | 46.5 µM (inactive) | 57.9 µM (inactive) | 30.3 µM (inactive) | 24 µM (inactive) | > 100 µM (inactive) | > 100 µM (inactive) | 43.1 µM (inactive) | 53.8 µM (inactive) | 20.2 µM (inactive) | – | 54.1 µM (inactive) | 26.5 µM (inactive) | – | – | – | 16.9 µM (inactive)
12 | COCC1OC(OC2OCC3OC4(OCC(O)(C(C)OC)C5OCOC54)OC3C2OC)C(OC)C(O)C1OC1OC(C)C(OC)C(OC2OC(C)C3OC4(CC(O)C(OC5CC(OC6CC(C)([N+](=O)[O-])C(OC)C(C)O6)C(OC(=O)c6c(C)c(Cl)c(O)c(Cl)c6OC)C(C)O5)C(C)O4)OC3(C)C2O)C1O (stereo unspecified) | > 100 µM (inactive) | > 100 µM (inactive) | > 100 µM (inactive) | > 100 µM (inactive) | > 100 µM (inactive) | > 100 µM (inactive) | > 100 µM (inactive) | – | > 100 µM (inactive) | > 100 µM (inactive) | > 100 µM (inactive) | > 100 µM (inactive) | > 100 µM (inactive) | > 100 µM (inactive) | > 100 µM (inactive) | > 100 µM (inactive) | > 100 µM (inactive) | > 100 µM (inactive) | > 100 µM (inactive) | > 100 µM (inactive)
13 | COc1cc([C@@H]2c3cc4c(cc3[C@@H](OC3OC5COC(C)OC5C(O)C3O)[C@H]3COC(=O)[C@H]23)OCO4)cc(OC)c1O (stereo partly specified) | – | 7.14 µM (inactive) | 4.2 µM (inactive) | 0.849 µM (active) | 27.7 µM (inactive) | 18.6 µM (inactive) | – | – | 28.2 µM (inactive) | 65.5 µM (inactive) | 5.92 µM (inactive) | 6.71 µM (inactive) | – | – | 0.533 µM (active) | – | 14.9 µM (inactive) | 3.27 µM (inactive) | – | 42.3 µM (inactive)
14 | O=c1ccc2c(Cl)sc(Cl)c2[nH]1 | > 100 µM (inactive) | – | > 100 µM (inactive) | > 100 µM (inactive) | 98.4 µM (inactive) | > 100 µM (inactive) | > 100 µM (inactive) | > 100 µM (inactive) | > 100 µM (inactive) | > 100 µM (inactive) | > 100 µM (inactive) | > 100 µM (inactive) | > 100 µM (inactive) | > 100 µM (inactive) | > 100 µM (inactive) | > 100 µM (inactive) | > 100 µM (inactive) | – | – | > 100 µM (inactive)
15 | O=C(O)c1c(Cl)c(Cl)c(Cl)c(Cl)c1C(=O)Nc1ccc2cn[nH]c2c1 | > 100 µM (inactive) | > 100 µM (inactive) | > 100 µM (inactive) | 48 µM (inactive) | > 100 µM (inactive) | 62.1 µM (inactive) | > 100 µM (inactive) | 92.7 µM (inactive) | > 100 µM (inactive) | > 100 µM (inactive) | > 100 µM (inactive) | > 100 µM (inactive) | > 100 µM (inactive) | 97.3 µM (inactive) | > 100 µM (inactive) | 37.4 µM (inactive) | > 100 µM (inactive) | > 100 µM (inactive) | – | > 100 µM (inactive)
16 | CN(C)CCC(C#N)(c1ccccc1)c1ccccc1 | > 100 µM (inactive) | 71.3 µM (inactive) | > 100 µM (inactive) | > 100 µM (inactive) | > 100 µM (inactive) | > 100 µM (inactive) | 25.9 µM (inactive) | 94.4 µM (inactive) | > 100 µM (inactive) | 93.5 µM (inactive) | 90.6 µM (inactive) | > 100 µM (inactive) | 60.1 µM (inactive) | 4.06 µM (inactive) | > 100 µM (inactive) | 24.9 µM (inactive) | 40 µM (inactive) | > 100 µM (inactive) | – | 65.9 µM (inactive)

From ChEMBL document CHEMBL1201862, “PubChem BioAssay data set” (2004)
